Q: Which melting point does the source give for `COc1ccc2sc(C(=O)O)c(C)c2c1` here?
A: The melting point was 254 to 256 °C.

Q: Which melting point does the source give for `COCCOc1cc2c(cc1C=O)OCO2` here?
A: Its melting point is 84 to 86 °C.

Q: Which melting point does the source give for `O=C(O)c1cc(Cl)c[nH]1` here?
A: Its melting point is 182 to 184 °C.

Q: Which melting point does the source give for `CCCOc1ccc(C(=O)O)cc1OC` here?
A: The melting point was 182 to 184 °C.

Q: For `N#Cc1ccccc1CN1C(=O)CCC1=O`, which melting point is on record?
A: Its melting point is 122 to 124 °C.

Q: For `O=C(O)c1cc(=O)c2cc(Br)ccc2[nH]1`, which melting point is on record?
A: Its melting point is 297 to 299 °C.

Q: For `Cc1cc(F)c(S(N)(=O)=O)cc1F`, which melting point is on record?
A: The melting point was 132 to 134 °C.

Q: With `CCOC(=O)c1cc(C)nc2onc(C)c12` as the compound, how does the melting point read?
A: Its melting point is 64 to 66 °C.

Q: With `CC(C)(C)OC(=O)N1CCC(CCC(=O)O)CC1` as the compound, how does the melting point read?
A: Its melting point is 99 to 101 °C.

Q: For `CC(C)(C)c1nc2ccc(N)cc2s1`, which melting point is on record?
A: Its melting point is 137 to 139 °C.

Q: Which melting point does the source give for `Cc1cccc([N+](=O)[O-])c1I` here?
A: The melting point was 67 to 69 °C.

Q: For `Nc1cccc(N2CCN(CCc3ccccc3)CC2)c1`, which melting point is on record?
A: Its melting point is 96 to 98 °C.

Q: Which melting point does the source give for `N#Cc1ncn(CC(=O)O)n1` here?
A: The melting point was 96 to 98 °C.

Q: Which melting point does the source give for `COc1ccccc1-c1nnc(S)n1C` here?
A: The melting point was 177 to 179 °C.

Q: With `CC(=O)CN1C(=O)c2ccccc2S1(=O)=O` as the compound, how does the melting point read?
A: Its melting point is 144 to 146 °C.

Q: With `Nc1ccc(SC(F)(F)F)c(F)c1` as the compound, how does the melting point read?
A: The melting point was 33 to 35 °C.

Q: Which melting point does the source give for `CC(C)(C)OC(=O)N[C@@H]1CCCC[C@H]1N` (relative stereo) here?
A: Its melting point is 76 to 78 °C.

Q: With `Fc1ccc(-c2nc(CCl)cs2)cc1` as the compound, how does the melting point read?
A: Its melting point is 54 to 56 °C.

Q: For `COCCn1nc(C)c(C(C)=O)c1C`, which melting point is on record?
A: Its melting point is 31 to 33 °C.

Q: Which melting point does the source give for `COc1cc(C(=O)O)ccc1OCC(N)=O` here?
A: The melting point was 257 to 259 °C.

Q: Which melting point does the source give for `O=C(O)CCN1C(=O)COc2cc(Br)ccc21` here?
A: Its melting point is 153 to 155 °C.

Q: For `O=C(O)CSCCc1ccccc1`, which melting point is on record?
A: Its melting point is 56 to 58 °C.

Q: For `Cc1[nH]c(=O)c(C(=O)O)cc1-c1ccccc1`, which melting point is on record?
A: Its melting point is 258 to 260 °C.

Q: For `CCc1cc(C(=O)O)nn1C`, which melting point is on record?
A: The melting point was 119 to 121 °C.

Q: For `O=C(O)CCCN1C(=O)c2cccc3cccc(c23)C1=O`, which melting point is on record?
A: Its melting point is 86 to 88 °C.

Q: For `O=C(O)c1cc(S(=O)(=O)N2CCCCC2)ccc1N1CCCC1`, which melting point is on record?
A: The melting point was 120 to 122 °C.

Q: With `CC(C)(C)OC(=O)NCCOc1ccc(N)cc1` as the compound, how does the melting point read?
A: The melting point was 73 to 75 °C.

Q: With `CNS(=O)(=O)C1CCNCC1` as the compound, how does the melting point read?
A: The melting point was 168 to 170 °C.

Q: With `Cc1nc(C(C)C)sc1C(=O)O` as the compound, how does the melting point read?
A: The melting point was 169 to 171 °C.

Q: With `NCc1cccc(NC(=O)N2CCCC2)c1` as the compound, how does the melting point read?
A: The melting point was 128 to 130 °C.

Q: With `COC(=O)C#Cc1ccc(F)cc1F` as the compound, how does the melting point read?
A: Its melting point is 58 to 60 °C.

Q: For `CC(C)n1[nH]c(-c2ccccc2)cc1=N`, which melting point is on record?
A: Its melting point is 83 to 85 °C.

Q: Which melting point does the source give for `CC(Oc1ccc(-c2nc3ccccc3s2)cc1)C(=O)O` (stereo unspecified) here?
A: Its melting point is 217 to 219 °C.

Q: Which melting point does the source give for `Cc1ccc2ncc(C(=O)O)c(O)c2c1` here?
A: Its melting point is 269 to 271 °C.

Q: Which melting point does the source give for `[N-]=[N+]=Nc1ccnc(C(N)=O)c1` here?
A: Its melting point is 169 to 171 °C.

Q: With `Cc1ccc(Oc2cccc(N(C)C)c2)c(N)c1` as the compound, how does the melting point read?
A: Its melting point is 64 to 66 °C.

Q: For `CCCOc1ccc2c(c1)OCC(C(=O)O)=C2`, which melting point is on record?
A: The melting point was 178 to 180 °C.

Q: Which melting point does the source give for `O=C(O)c1cnn(-c2ncccc2Cl)c1C(F)(F)C(F)(F)F` here?
A: Its melting point is 141 to 143 °C.

Q: With `Cc1cc(Br)cc(C)c1C#N` as the compound, how does the melting point read?
A: The melting point was 68 to 70 °C.

Q: For `NC(=S)NN=Cc1cccs1`, which melting point is on record?
A: Its melting point is 161 to 163 °C.

Q: For `Nc1cc(-c2cccc([N+](=O)[O-])c2)n[nH]1`, which melting point is on record?
A: Its melting point is 137 to 139 °C.

Q: For `N#CCCNc1ccc(F)cc1`, which melting point is on record?
A: Its melting point is 38 to 42 °C.

Q: For `Cc1ccc(S(=O)(=O)N2CCN(C(=O)C(C)Cl)CC2)cc1` (stereo unspecified), which melting point is on record?
A: The melting point was 153 to 155 °C.

Q: With `Cc1cnc(Br)nc1Br` as the compound, how does the melting point read?
A: Its melting point is 58 to 60 °C.

Q: Which melting point does the source give for `Cc1ccc(S(=O)(=O)Nc2ccc(N)cc2)cc1` here?
A: Its melting point is 183 to 185 °C.

Q: Which melting point does the source give for `O=C(NCc1ccco1)OCC(F)(F)F` here?
A: Its melting point is 35 to 37 °C.

Q: With `Nc1cc(C2CCNCC2)n[nH]1` as the compound, how does the melting point read?
A: Its melting point is 151 to 153 °C.

Q: With `CNC(=S)NC1CC1` as the compound, how does the melting point read?
A: The melting point was 108 to 110 °C.

Q: Which melting point does the source give for `COc1ccc2cc(-c3nn(-c4ccccc4)cc3C=O)ccc2c1` here?
A: Its melting point is 164 to 166 °C.

Q: For `Cn1nc(Br)c2c(Cl)ncnc21`, which melting point is on record?
A: Its melting point is 115 to 117 °C.

Q: For `CCOc1cc(N)c(Br)cc1OCC`, which melting point is on record?
A: Its melting point is 50 to 52 °C.

Q: With `COc1cc(OC)c(S(=O)(=O)Cl)cc1Br` as the compound, how does the melting point read?
A: The melting point was 193 to 195 °C.

Q: For `CC(=O)Nc1cc(-c2csc(N)n2)ccc1O`, which melting point is on record?
A: The melting point was 218 to 222 °C.

Q: With `CCOC(=O)C(=O)c1ccc2c(c1)OCCO2` as the compound, how does the melting point read?
A: Its melting point is 65 to 67 °C.

Q: For `Nc1ccccc1C(=O)Nc1ccncc1`, which melting point is on record?
A: The melting point was 144 to 146 °C.

Q: With `CN1CCN(C(=O)c2ccccc2C(=O)O)CC1` as the compound, how does the melting point read?
A: Its melting point is 274 to 276 °C.
